Measurements from patent publication US11820745B2, “PKC-activating compounds for the treatment of neurodegenerative diseases” (Synaptogenix, Inc., priority 2008, dated 2023).

Assays:
PKCα = target: T1, PKCα (Homo sapiens, UniProt P17252); experiment: Protein kinase C assay, recombinant PKC alpha; format: biochemical; details: data not shown
T1 construct: purchased Calbiochem
Description: Protein kinase C assay. Recombinant PKC (1 ng of alpha or epsilon isofonn) was mixed with the BR-101 (UCP-LA) in the presence of 10 micromoiar histones, 5 mM CaCl2, 1.2 μg/μl phosphatidyl-L-serine, 0.18 μg/μl 1,2-dioctanoyl-sn-glycerol (DAG), […], […] (pH 7.4), 0.8 tnIVI EDTA, 4 mM EGTA, 4% glycerol, 8 μg/ml aprotinin, 8 μ/ml leupeptin, and 2 mM benzamidine. 0.5 micro Ci [^y32P]ATP was added. The incubation mixture was incubated for 15 min at 37 degrees in a total volume of 10 microliters. The reaction was stopped by spotting the reaction mixtures on 1×2 cm strips of cellulose phosphate paper (Whatman P81) and immediately washing twice for 1 hr in 0.5% H3PO4. The cellulose phosphate strips were counted in a scintillation counter. In some experiments, phosphatidylserine, diacylglycerol, and/or calcium were removed.

PKCδ = target: T2, PKCδ (Homo sapiens, UniProt Q05655); experiment: Protein kinase C assay, purified PKC isozymes: PKCδ; format: biochemical; details: higher concentrations, about 1-100 μM; data not shown
T2 construct: purchased Calbiochem
Description: Protein kinase C assay. Rat hippocampal cells were cultured and scraped in 0.2 ml homogenization buffer (20 triM Tris-HCl, pH 7.4, 50 mM NaF, 1 μg/ml leupeptin, and 0.1 mM PMSF) and homogenized by sonication in a Marsonix micro-probe sonicator (5 see, 10W). To measure PKC, 10 ul of cell homogenate or purified. PKC isozyme (purchased from Calbiochem) was incubated for 15 min at 37° C. in the presence of 10 μM histones, 4.89 mM CaCl2, 1.2 μg/μl phosphatidyl-L-serine, 0.18 μg/μl 1,2-dioctanoyl-sn-glycerol, 10 mM MgCl2, 20 mM HEPES (pH 7.4), 0.8 mM EDTA, 4 mM EGTA, 4% glycerol, 8 μg/ml aprotinin, 8 μg/ml leupeptin, and 2 mM benzamidine. 0.5 μCi [^γ-32P]ATP was added and ^32P-phosphoprotein formation was measured by adsorption onto phosphocellulose as described previously. Nelson and Alkon, J. Neurochemistry. 1995; 65: 2350-57. For measurements of activation by BR-101 (DCP-LA) and similar compounds, PKC activity was measured in the absence of diacylglycerol and phosphatidyl serine, as described by Kanno et al., and PKC δ, ε, η, and μ were measured in the absence of added EGTA and CaCl2, as described by Kanno et al., J. Lipid Res. 2006; 47: 1146-50. […]
To determine their PKC isozyme specificity, the new compounds were preincubated with purified PKC for five minutes and the PKC activity was measured radiometrically.

PKC [1] = experiment: PKC activity time course in rat hippocampal primary neurons; format: cell-based; details: sustained activation only observed in primary neurons
Description: (§1) Cell culture. Rat hippocampal H19-71GF-IR cells (ATCC, Manassas, Va.) were plated onto poly-L-lysine coated plates and grown at 35° C. in DMEM/10% FCS for several days until about 50% coverage was obtained. The cells were then induced to differentiate into a neuronal phenotype by replacing the medium with 5 ml N2 medium containing 10 ng/ml basic fibroblast growth factor at 39° C. and grown in T-75 flasks at 37° C. Human SH-SY5Y neuroblastoma cells (ATCC) were cultured in 45% F12K/45% MEM/10% FCS. Mouse N2A neuroblastoma cells were cultured in DMEM/10% FCS without glutamine. Rat hippocampal neurons from 18-day-old embryonic
Sprague Dawley rat brains were plated on 12- or 96-well plates coated with poly-D-lysine (Sigma-Aldrich, St, Louis, Mo.) in B-27 neurobasal medium containing 0.5 mM glutamine and 25 uM glutamate (Invitrogen, Carlsbad, Calif.) and cultured for three days in the medium without glutamate. […]
Protein kinase C assay. […] 0.5 μCi [^γ-32P]ATP was added and ^32P-phosphoprotein formation was measured by adsorption onto phosphocellulose as described previously. […] For measurements of activation by BR-101 (DCP-LA) and similar compounds, PKC activity was measured in the absence of diacylglycerol and phosphatidyl serine, as described by Kanno et al., and PKC δ, ε, η, and μ were measured in the absence of added EGTA and CaCl2, as described by Kanno et al., J. Lipid Res. 2006; 47: 1146-50. […]

PKC [2] = experiment: PKC activity time course in rat H19-7/IGF-IR hippocampal cells; format: cell-based
Description: as §1
Protein kinase C assay. Rat hippocampal cells were cultured and scraped in 0.2 ml homogenization buffer (20 triM Tris-HCl, pH 7.4, 50 mM NaF, 1 μg/ml leupeptin, and 0.1 mM PMSF) and homogenized by sonication in a Marsonix micro-probe sonicator (5 see, 10W). To measure PKC, 10 ul of cell homogenate or purified. PKC isozyme (purchased from Calbiochem) was incubated for 15 min at 37° C. in the presence of 10 μM histones, 4.89 mM CaCl2, 1.2 μg/μl phosphatidyl-L-serine, 0.18 μg/μl 1,2-dioctanoyl-sn-glycerol, 10 mM MgCl2, 20 mM HEPES (pH 7.4), 0.8 mM EDTA, 4 mM EGTA, 4% glycerol, 8 μg/ml aprotinin, 8 μg/ml leupeptin, and 2 mM benzamidine. 0.5 μCi [^γ-32P]ATP was added and ^32P-phosphoprotein formation was measured by adsorption onto phosphocellulose as described previously. Nelson and Alkon, J. Neurochemistry. 1995; 65: 2350-57. For measurements of activation by BR-101 (DCP-LA) and similar compounds, PKC activity was measured in the absence of diacylglycerol and phosphatidyl serine, as described by Kanno et al., and PKC δ, ε, η, and μ were measured in the absence of added EGTA and CaCl2, as described by Kanno et al., J. Lipid Res. 2006; 47: 1146-50. Low concentrations of Ca^2+ are used because high Ca^2+ interacts with the PKC phosphatidylserine binding site and prevents activation. For measurements of bryostatin activation, 1,2-diacylglycerol was omitted unless otherwise stated.

TACE = TACE assay in rat primary neurons; format: cell-based; details: primary neurons from rat hippocampus; FIGS. 9b, c
Description: TACE Assay. TACE was measured by incubating 5 μl cell homogenate, 3 μl buffer (50 mM Tris-HCl 7.4 plus 25 mM NaCl plus 4% glycerol), and 1 of 100 μM TACE substrate IV (Aβz-LAQAVRSSSR-DPa) (Calbiochem) for 20 min at 37° in 1.5-ml polypropylene centrifuge tubes (Jin et al., Anal Biochem. 2002; 302: 269-75). The reaction was stopped by cooling to 4° C. The samples were diluted to 1 ml and the fluorescence was rapidly measured (ex=320 nm, em=420 nm) in a Spex Fluorolog 2 spectrofluorometer.

T2 sequence (Q05655 whole entry): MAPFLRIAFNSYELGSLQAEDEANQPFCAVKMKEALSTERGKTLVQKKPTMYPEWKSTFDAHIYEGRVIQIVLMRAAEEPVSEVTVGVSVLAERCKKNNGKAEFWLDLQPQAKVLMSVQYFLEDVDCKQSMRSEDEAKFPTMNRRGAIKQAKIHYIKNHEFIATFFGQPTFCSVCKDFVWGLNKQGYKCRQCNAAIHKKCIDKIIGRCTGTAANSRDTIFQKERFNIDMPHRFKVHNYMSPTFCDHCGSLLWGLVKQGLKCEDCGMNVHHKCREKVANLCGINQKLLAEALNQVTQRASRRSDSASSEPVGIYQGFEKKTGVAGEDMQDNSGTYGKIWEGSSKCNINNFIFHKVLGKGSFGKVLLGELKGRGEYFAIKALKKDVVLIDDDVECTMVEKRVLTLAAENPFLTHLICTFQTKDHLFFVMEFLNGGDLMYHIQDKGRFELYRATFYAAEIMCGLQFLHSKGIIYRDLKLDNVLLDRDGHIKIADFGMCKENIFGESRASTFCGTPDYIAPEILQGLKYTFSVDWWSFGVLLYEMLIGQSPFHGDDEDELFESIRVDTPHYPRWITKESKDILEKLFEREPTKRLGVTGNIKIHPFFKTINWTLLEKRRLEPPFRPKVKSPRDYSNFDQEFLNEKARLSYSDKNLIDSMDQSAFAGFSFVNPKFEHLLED

CCCCCC1CC1CC1CC1CCCCCCCC(=O)O (centres unmarked) [BR-101, 8-[2-(2-pentyl-cyclopropylmethyl)-cyclopropyl]-octanoic acid]
effect on PKCα (PKCα): not affected
effect on PKCδ (PKCδ): partially inhibited
duration of PKC elevation (PKC [1]): remained elevated for at least four hours
downregulation of PKC (PKC [2]): could not be measured

CCC1CC1CC1CC1CC1CC1CC1CC1CC1CC1CC1CC1CCC(=O)OC (centres unmarked) [BR-111, methyl-3-(2-((2-((2-((2-((2-((2-ethylcyclopropyl)methyl)cyclopropyl)methyl)cyclopropyl)methyl)-cyclopropyl)methyl)cyclopropyl)methyl)cyclopropyl)propanoate]
TACE activity (TACE): small increases
